For three compounds, remaining activity results are on record in patent US20110152313A1 (MACQUARIE UNIVERSITY, priority 2008, published 2011).

Each structure is given as a SMILES string.

Common to all, as to assay: kinase binding screen (kinase-tagged T7 phage, qPCR), % Ctrl
(In general: In qPCR the cycle at which signal appears reflects the starting amount.)

Experiment [1] deals with SBK1 (Homo sapiens, UniProt Q52WX2). In a few lines: (§1)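 Kinase-tagged T7 phage lysates were prepared in E. coli (MOI 0.4, 32° C until lysis), then exposed to ligand-bearing beads and test compound at a fixed concentration. Kinase remaining bound was eluted and measured by qPCR.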
Chain of SBK1 (Q52WX2 whole entry): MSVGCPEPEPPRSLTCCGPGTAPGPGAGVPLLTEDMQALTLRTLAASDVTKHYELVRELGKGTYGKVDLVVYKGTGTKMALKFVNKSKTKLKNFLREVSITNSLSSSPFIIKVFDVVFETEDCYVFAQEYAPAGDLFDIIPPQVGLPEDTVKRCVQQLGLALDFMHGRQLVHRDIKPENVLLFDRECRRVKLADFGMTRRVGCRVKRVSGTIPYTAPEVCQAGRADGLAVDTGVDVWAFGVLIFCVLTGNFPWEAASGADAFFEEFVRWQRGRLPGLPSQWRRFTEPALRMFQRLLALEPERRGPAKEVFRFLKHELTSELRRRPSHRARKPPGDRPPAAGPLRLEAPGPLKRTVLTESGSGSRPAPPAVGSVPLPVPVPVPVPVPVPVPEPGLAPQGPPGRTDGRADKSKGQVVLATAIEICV
Experiment [2] concerns the target T1, SgK085 (Homo sapiens, UniProt Q86YV6).
T1 sequence (Q86YV6 1-388): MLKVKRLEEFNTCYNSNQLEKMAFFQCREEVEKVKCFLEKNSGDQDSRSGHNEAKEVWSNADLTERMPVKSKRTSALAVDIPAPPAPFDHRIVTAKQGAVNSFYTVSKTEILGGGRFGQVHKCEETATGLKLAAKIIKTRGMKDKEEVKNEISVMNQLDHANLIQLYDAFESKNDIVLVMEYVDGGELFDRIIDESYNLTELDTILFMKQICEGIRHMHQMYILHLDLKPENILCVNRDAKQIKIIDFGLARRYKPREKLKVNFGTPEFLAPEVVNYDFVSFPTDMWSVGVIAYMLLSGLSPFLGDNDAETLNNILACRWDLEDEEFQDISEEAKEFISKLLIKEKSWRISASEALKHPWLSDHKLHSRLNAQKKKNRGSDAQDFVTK
A digest of the protocol:
as §1

Experiment [3] concerns the target T2, PLK4 (Homo sapiens, UniProt O00444).
T2 sequence (O00444 1-970): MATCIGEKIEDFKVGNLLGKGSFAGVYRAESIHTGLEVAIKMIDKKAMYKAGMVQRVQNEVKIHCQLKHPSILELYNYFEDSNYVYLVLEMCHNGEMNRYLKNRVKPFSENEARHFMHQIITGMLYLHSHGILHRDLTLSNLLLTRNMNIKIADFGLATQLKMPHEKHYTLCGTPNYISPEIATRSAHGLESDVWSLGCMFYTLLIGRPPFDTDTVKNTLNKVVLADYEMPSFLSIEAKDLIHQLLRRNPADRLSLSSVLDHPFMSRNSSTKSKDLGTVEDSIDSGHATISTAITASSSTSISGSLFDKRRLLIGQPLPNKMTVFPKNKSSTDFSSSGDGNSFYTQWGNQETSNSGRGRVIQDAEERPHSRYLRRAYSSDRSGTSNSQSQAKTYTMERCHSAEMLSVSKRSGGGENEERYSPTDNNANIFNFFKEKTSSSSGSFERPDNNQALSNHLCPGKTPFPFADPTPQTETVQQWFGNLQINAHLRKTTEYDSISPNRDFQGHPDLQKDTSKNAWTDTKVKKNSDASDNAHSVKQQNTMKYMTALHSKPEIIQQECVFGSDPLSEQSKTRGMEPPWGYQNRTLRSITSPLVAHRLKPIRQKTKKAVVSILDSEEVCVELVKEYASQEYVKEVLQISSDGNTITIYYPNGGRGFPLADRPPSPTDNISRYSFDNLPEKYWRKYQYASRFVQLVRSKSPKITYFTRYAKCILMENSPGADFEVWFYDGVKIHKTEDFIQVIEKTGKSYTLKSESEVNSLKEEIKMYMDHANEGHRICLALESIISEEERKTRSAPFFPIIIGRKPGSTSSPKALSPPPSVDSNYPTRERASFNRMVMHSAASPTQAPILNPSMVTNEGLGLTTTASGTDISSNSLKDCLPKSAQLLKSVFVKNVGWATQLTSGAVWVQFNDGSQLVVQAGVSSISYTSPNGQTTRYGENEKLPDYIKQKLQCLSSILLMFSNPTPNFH
In a few lines: as §1

The target of experiment [4] is T3, CDKL5 (Homo sapiens, UniProt O76039).
T3 sequence (O76039 1-960): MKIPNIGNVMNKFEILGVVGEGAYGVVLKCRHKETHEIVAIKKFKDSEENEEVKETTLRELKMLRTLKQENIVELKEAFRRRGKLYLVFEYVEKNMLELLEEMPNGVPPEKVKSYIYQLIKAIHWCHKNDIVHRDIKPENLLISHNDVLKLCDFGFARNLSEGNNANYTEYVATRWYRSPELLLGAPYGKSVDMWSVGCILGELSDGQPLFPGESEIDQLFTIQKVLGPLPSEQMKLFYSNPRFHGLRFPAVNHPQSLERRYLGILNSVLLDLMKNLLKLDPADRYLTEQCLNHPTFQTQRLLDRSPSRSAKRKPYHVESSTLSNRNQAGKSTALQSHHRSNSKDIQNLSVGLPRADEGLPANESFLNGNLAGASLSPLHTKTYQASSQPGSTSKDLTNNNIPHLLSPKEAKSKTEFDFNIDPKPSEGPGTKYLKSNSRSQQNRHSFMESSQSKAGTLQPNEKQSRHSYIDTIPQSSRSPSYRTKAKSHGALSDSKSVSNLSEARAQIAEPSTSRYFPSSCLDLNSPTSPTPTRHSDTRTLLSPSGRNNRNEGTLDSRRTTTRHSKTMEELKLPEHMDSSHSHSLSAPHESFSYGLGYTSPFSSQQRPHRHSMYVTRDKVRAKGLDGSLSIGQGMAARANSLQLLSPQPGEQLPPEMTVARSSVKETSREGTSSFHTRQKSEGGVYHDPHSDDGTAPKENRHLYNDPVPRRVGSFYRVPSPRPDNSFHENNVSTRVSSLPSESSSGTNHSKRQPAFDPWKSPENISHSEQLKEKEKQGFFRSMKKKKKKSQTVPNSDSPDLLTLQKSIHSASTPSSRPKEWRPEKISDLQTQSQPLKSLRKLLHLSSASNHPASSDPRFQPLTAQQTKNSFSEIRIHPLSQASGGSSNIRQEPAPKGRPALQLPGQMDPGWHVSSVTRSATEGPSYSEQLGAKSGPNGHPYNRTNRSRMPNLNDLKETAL
In a few lines:
as §1

As for `Nc1nc2c(-c3ccccn3)nccc2[nH]1` [drawing 35, 4-(pyrid-2-yl)-1H-imidazo[4,5-c]pyridin-2-amine], the remaining activity – broadly, the share of the control activity or signal that is left under treatment – at 1 µM in experiment [1] amounted to 53%; in experiment [2], 43%; in experiment [3], 55%; in experiment [4], 50%.

Consider `Nc1nc2c(-c3cnc4ccccc4c3)nccc2[nH]1` [drawing 36, 4-(quinolin-3-yl)-1H-imidazo[4,5-c]pyridin-2-amine], for which the remaining activity at 1 µM in experiment [1] amounted to 100%; in experiment [2], 92%; in experiment [3], 100%; in experiment [4], 54%.

Turning to `Nc1nc2c(-c3cc(Br)c(Br)[nH]3)nccc2[nH]1` [Ageladine A, ageladine A, reference compound], the remaining activity at 1 µM in experiment [1] amounted to 87%; in experiment [2], 89%; in experiment [3] it was 81%; in experiment [4], 54%. Further, the remaining activity at 10 µM in experiment [1] (10 μM) worked out at 77%; in experiment [2] (10 μM), 90%; in experiment [3] (10 μM) it was 65%; in experiment [4] (10 μM), 40%.
